Paper PMC6407917, “Identification of GSK3186899/DDD853651 as a Preclinical Development Candidate for the Treatment of Visceral Leishmaniasis” (Journal of Medicinal Chemistry, 2018)

Tests used:
Assay in all cases: biochemical
Parameters in all cases: species or system HEK293/K-562/placenta mixed human extract; Kinobeads chemoproteomic competition binding, quantified by TMT LC-MS/MS, dose response up to 20 uM
STK10 = STK10 (Homo sapiens, UniProt O94804)
STK39 = STK39 (Homo sapiens, UniProt Q9UEW8)
STK11 = STK11 (Homo sapiens, UniProt Q15831)
TTK = TTK (Homo sapiens, UniProt P33981)
CHUK = CHUK (Homo sapiens, UniProt O15111)
CAMK2D = CAMK2D (Homo sapiens, UniProt Q13557)
WEE1 = WEE1 (Homo sapiens, UniProt P30291)
MAPKAPK5 = MAPKAPK5 (Homo sapiens, UniProt Q8IW41)
STK4 = STK4 (Homo sapiens, UniProt Q13043)
PKN3 = PKN3 (Homo sapiens, UniProt Q6P5Z2)
LIMK1 = LIMK1 (Homo sapiens, UniProt P53667)
FRK = FRK (Homo sapiens, UniProt P42685)
NUAK2 = NUAK2 (Homo sapiens, UniProt Q9H093)
MAP4K1 = MAP4K1 (Homo sapiens, UniProt Q92918)
EPHB6 = EPHB6 (Homo sapiens, UniProt O15197)
CDC42BPA = CDC42BPA (Homo sapiens, UniProt Q5VT25)
PIP4K2A = PIP4K2A (Homo sapiens, UniProt P48426)
OXSR1 = OXSR1 (Homo sapiens, UniProt O95747)
AXL = AXL (Homo sapiens, UniProt P30530)
PRKACA = PRKACA (Homo sapiens, UniProt P17612)
CHEK1 = CHEK1 (Homo sapiens, UniProt O14757)

Chain of FRK (P42685 whole entry): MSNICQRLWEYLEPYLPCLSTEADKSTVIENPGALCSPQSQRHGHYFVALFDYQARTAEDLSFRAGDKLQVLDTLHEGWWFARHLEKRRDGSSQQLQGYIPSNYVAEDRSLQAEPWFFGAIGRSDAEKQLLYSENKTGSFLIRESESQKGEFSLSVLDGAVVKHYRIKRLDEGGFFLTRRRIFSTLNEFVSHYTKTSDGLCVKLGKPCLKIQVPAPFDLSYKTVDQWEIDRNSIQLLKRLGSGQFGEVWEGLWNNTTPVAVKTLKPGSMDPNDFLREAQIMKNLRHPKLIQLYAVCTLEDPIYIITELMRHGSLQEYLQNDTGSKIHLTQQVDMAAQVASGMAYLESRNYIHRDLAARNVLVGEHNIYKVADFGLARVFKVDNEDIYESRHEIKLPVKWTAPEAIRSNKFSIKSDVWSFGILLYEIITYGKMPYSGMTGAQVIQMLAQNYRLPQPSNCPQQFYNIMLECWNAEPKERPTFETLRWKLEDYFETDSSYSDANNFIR
Chain of MAP4K1 (Q92918 whole entry): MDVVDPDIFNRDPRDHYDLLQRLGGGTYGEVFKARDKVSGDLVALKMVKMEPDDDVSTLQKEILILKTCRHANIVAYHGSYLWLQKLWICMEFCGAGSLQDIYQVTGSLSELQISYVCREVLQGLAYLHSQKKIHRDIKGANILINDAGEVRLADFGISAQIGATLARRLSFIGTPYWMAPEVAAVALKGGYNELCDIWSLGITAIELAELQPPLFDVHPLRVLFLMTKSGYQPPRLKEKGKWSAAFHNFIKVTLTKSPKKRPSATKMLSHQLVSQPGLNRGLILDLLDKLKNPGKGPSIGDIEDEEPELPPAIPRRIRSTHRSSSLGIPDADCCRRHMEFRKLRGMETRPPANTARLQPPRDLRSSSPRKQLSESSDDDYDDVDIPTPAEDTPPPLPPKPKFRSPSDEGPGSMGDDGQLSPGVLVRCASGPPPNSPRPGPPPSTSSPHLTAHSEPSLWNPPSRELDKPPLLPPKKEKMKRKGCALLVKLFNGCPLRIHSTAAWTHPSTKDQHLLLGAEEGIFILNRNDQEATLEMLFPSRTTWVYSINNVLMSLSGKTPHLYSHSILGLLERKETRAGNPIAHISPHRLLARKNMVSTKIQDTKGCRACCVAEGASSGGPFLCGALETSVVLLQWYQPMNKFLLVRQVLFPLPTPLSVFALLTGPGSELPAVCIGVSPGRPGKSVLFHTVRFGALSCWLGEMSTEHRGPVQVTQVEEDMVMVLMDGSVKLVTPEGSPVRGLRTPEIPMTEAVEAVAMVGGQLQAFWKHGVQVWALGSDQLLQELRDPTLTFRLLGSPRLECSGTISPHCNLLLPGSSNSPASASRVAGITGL
Chain of CDC42BPA (Q5VT25 whole entry): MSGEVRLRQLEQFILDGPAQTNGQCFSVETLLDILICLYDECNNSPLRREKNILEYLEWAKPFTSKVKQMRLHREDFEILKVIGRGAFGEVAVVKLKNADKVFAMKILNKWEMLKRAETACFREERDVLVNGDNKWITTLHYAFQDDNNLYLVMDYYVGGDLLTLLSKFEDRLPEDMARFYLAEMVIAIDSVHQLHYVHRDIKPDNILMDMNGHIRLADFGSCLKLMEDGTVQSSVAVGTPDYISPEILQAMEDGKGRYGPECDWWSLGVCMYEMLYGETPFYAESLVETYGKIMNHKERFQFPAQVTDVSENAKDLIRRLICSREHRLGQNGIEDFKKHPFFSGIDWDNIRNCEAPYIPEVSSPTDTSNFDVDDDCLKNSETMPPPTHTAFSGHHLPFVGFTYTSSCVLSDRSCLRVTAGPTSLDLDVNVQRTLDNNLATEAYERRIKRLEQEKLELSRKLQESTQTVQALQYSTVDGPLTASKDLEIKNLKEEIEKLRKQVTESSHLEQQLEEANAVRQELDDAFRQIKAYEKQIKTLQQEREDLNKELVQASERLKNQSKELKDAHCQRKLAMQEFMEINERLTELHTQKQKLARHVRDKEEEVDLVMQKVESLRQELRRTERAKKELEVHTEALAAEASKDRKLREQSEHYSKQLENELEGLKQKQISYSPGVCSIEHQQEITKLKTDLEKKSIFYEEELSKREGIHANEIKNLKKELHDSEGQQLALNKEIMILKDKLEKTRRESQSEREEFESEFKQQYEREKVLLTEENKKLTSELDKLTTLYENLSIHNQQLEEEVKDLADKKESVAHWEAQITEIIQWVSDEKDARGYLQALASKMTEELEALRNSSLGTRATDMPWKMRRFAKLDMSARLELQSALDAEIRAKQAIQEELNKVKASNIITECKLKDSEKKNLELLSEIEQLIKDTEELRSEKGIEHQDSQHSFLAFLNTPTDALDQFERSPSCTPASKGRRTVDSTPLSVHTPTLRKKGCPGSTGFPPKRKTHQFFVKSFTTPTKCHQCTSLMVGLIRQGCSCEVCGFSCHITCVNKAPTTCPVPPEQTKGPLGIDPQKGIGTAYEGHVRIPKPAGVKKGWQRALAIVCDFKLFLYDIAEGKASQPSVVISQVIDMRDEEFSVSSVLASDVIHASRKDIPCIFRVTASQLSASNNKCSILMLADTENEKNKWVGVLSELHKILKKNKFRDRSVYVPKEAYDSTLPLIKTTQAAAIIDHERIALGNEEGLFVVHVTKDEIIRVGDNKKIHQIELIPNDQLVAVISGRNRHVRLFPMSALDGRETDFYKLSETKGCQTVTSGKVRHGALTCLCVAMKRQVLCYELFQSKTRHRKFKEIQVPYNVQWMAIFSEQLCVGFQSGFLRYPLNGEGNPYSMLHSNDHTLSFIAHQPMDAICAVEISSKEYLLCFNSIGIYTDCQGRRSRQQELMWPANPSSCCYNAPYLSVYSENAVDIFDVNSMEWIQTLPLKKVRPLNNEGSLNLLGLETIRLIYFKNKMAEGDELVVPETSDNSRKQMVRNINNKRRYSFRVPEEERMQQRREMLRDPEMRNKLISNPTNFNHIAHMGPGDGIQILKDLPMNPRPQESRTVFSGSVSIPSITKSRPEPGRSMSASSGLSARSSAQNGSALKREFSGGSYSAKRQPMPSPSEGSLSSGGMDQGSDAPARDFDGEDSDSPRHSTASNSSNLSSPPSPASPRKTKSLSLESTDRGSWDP
Chain of PKN3 (Q6P5Z2 whole entry): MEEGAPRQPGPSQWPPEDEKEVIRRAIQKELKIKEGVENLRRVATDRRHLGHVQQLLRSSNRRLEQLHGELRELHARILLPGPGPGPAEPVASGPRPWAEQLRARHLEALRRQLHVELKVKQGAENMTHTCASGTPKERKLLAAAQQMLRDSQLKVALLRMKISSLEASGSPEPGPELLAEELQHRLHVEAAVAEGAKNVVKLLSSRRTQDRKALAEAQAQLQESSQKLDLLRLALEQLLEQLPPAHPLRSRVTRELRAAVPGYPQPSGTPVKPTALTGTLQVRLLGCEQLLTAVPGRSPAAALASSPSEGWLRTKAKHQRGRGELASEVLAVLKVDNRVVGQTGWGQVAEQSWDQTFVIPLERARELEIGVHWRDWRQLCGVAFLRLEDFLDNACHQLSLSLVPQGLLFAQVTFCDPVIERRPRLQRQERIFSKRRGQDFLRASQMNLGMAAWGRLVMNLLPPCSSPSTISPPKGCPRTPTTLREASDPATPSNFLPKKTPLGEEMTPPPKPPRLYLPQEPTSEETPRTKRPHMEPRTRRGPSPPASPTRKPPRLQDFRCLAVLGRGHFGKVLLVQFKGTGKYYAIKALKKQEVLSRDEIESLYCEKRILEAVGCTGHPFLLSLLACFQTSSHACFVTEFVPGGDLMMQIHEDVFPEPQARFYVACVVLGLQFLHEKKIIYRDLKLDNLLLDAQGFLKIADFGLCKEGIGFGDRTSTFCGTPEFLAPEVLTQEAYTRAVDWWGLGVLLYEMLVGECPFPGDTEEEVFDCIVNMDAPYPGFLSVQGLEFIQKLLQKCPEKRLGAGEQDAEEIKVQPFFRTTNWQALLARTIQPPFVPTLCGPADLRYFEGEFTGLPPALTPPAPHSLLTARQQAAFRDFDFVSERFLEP
Chain of EPHB6 (O15197 whole entry): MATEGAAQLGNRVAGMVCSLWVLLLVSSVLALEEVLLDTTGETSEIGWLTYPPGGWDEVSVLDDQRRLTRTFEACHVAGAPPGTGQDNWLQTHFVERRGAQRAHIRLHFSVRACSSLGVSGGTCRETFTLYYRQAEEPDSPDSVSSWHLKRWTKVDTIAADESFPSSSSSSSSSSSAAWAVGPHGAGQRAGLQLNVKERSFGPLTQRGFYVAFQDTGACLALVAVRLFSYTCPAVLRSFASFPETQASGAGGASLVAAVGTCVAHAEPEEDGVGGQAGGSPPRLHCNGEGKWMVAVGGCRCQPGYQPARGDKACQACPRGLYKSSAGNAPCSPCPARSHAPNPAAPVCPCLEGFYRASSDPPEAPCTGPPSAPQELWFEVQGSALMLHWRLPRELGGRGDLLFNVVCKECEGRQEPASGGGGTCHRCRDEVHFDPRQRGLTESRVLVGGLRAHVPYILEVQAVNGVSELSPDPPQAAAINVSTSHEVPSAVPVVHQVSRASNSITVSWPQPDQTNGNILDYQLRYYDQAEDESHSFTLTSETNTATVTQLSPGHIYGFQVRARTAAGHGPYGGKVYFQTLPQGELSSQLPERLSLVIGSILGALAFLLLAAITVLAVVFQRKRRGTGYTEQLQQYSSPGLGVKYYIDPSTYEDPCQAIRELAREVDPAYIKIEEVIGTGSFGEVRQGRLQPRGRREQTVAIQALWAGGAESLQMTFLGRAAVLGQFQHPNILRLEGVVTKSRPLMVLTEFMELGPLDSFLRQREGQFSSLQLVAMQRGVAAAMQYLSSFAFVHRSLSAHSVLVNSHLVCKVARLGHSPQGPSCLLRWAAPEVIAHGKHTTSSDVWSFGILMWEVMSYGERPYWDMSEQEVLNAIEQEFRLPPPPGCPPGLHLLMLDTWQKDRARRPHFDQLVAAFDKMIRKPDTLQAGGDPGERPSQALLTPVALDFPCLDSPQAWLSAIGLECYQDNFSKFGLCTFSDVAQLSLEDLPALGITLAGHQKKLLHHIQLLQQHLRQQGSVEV

COc1nc(N[C@H]2CC[C@H](NS(=O)(=O)CC(C)C)CC2)nc2[nH]nc(N3CCOC[C@H]3C)c12 [compound 39, N-(trans-4-((4-Methoxy-3-((R)-3-methylmorpholino)-1H-pyrazolo[3,4-d]pyrimidin-6-yl)amino)cyclohexyl)-2-methylpropane-1-sulfonamide]
IC50 (STK10): ≥ 20 µM | IC50 (STK39): ≥ 20 µM | IC50 (STK11): ≥ 20 µM | IC50 (TTK): ≥ 20 µM | IC50 (CHUK): ≥ 20 µM | IC50 (CAMK2D): ≥ 20 µM | IC50 (WEE1): ≥ 20 µM | IC50 (MAPKAPK5): 6.2 µM | IC50 (STK4): ≥ 20 µM | IC50 (PKN3): ≥ 20 µM | IC50 (LIMK1): ≥ 20 µM | IC50 (FRK): ≥ 20 µM | IC50 (NUAK2): ≥ 20 µM | IC50 (MAP4K1): ≥ 20 µM | IC50 (EPHB6): 3.3 µM | IC50 (CDC42BPA): ≥ 20 µM | IC50 (PIP4K2A): ≥ 20 µM | IC50 (OXSR1): ≥ 20 µM | IC50 (AXL): ≥ 20 µM | IC50 (PRKACA): ≥ 20 µM | IC50 (CHEK1): ≥ 20 µM
